From patent US20120276064A1, “METHODS AND COMPOSITIONS FOR REJUVENATION AND EXPANSION OF STEM CELLS” (priority 2011, published 2012)

Key:
[1] = system: p38 signaling (phosphorylation of the p38 substrate MK2); assay: Phospho-MK2 flow cytometry in primary myoblasts stimulated with anisomycin and TNF; assay type: cell-based; settings: primary mouse myoblasts, 10 μM pretreatment one hour, anisomycin 1 μg/ml + TNF 50 ng/ml 30 min
Experimental: Phospho-MK2 flow cytometry. To analyze p38 signaling, the phosphorylation of MK2, a readout of p38 kinase activity, was assayed by flow cytometry. Primary mouse myoblasts were isolated as previously described. Myoblasts were cultured on collagen-coated tissue-culture plastic dishes in myogenic cell medium and were maintained at 37° C. in 5% CO2. Myoblasts were pretreated with 0.1% DMSO carrier control or 10 μM SB202190 for one-hour and then were stimulated with anisomycin (1 μg/ml; Sigma) and TNF (50 ng/ml; R&D Systems, Minneapolis, Minn.) for 30 minutes or mock buffer (PBS). Pretreatments and stimuli were added in 50× spike solutions. After 15 minutes, cells were collected from hydrogel cultures by incubation 0.5% trypsin in PBS for 2 min at 37° C. Cells were fixed with 1.5% paraformaldehyde in PBS, permeabilized in methanol at −80° C., and stained with an AlexFluor488-conjugated antibody reactive to the phosphorylated (Thr334) form of MK2 (Cell Signaling). Cells were analyzed for phospho-MK2 positivity on a modified FACStar Plus flow cytometer using FACS Diva software (BD Biosciences).

[2] = system: tibialis anterior muscle of notexin-injured old mice; assay: In vivo force measurements after transplantation of cultured old MuSC progeny; parameters: species or system mouse; settings: injured old muscles transplanted with progeny of SB-treated old MuSCs; two months post-injury
young and old MuSCs = assay: Bulk proliferation of MuSCs in soft hydrogel culture; assay type: cell-based, mouse; settings: soft (12 kPa) hydrogel, 10 μM, one week
Experimental: MuSC culture and treatment. Following isolation, MuSCs were pelleted and resuspended into myogenic cell culture medium containing DMEM/F10 (50:50), 15% FBS, 2.5 ng/ml bFGF, and 1% penicillin/streptomycin. MuSCs were seeded at 1000 cells per well (24-well plate size wells, 2.0 cm^2 surface area) on laminin-tethered hydrogels of either 12 kPa (soft) or ˜10^6 kPa (rigid) rigidities. Cells were maintained at 37° C. in 5% CO2. Media was changed daily. […]
Proliferation assays. MuSC proliferation in hydrogel culture was assessed at both the clonal and bulk levels. […] Cell proliferation was monitored by time-lapse microscopy from 12 hours (day 0) to four days post-seeding as described previously using a PALM/AxioObserver Z1 system (Carl Zeiss MicroImaging) with custom environmental control chamber and motorized stage. Images were recorded every 20 min at 5× magnification. […] After one week, cells were trypsinized and counted on a hemocytometer.

## Oc1ccc(-c2nc(-c3ccncc3)c(-c3ccc(F)cc3)[nH]2)cc1 [SB202190]
[1]
  p38 signaling activity / MK2 phosphorylation: prevents MK2 phosphorylation
[1]; listed as SB
  p38 signaling activity / MK2 phosphorylation: substantially attenuated p38 signaling activity
[2]
  Specific tetanus force versus pre-injury levels: restored
  Specific twitch force versus pre-injury levels: exceeded
Young and old MuSCs
  Increase in total cell numbers (relative to seeding): ~30 fold
  Stimulation of proliferation of hydrogel-cultured MuSCs (in words): profound stimulation of proliferation
